The values below come from patent publication US8496964B2, “Controlled release micro-capsule for osteogenic action” (Council of Scientific & Industrial Research, priority 2009, dated 2013).

A short description of data set [1]: In vitro Kaempferol release in SGF and SIF. It counts as physicochemical. The note with it: SIF compared with SGF. An excerpt: For in-vitro release study the ultra sink condition was maintained. Briefly, Dried pure Kaempferol dispersed in PBS, the Kaempferol-loaded CaCO3 MP (CaCO3-Kaempferol) and the encapsulated Kaempferol-loaded microcapsules suspension in same concentration were taken in centrifuge tube in one ml phosphate buffer saline (PBS). Two different pH solutions were used as the release medium [a simulated gastric fluid (SGF) (pH 1.2), prepared by diluting a concentrated HCl solution] and [a simulated intestinal fluid (SIF) (pH 7.4), prepared with 0.02M phosphate buffer saline]. The sample was maintained under horizontal agitation at 37° C. in vortex. At different time intervals the dispersion was centrifuged at 10,000 rpm for 5 min. and the supernatant was assayed for Kaempferol using RP-HPLC method at 370 nm against reagent blank. After each sampling the medium was replaced with fresh buffer. It was also ensured that no extra tiny particles are left in the supernatant.

The nature of a further data set: in vivo. The note with it: rat, po, 1 mg/kg. How it is done:
Kaempferol (free; 1 mg/kg) in 20% ethanol was orally administered by gavage. Following administration, the rats were sacrificed at 0.25, 0.5, 1.0, 1.5, 2.0, 2.5, 3.0, 4.0, 6.0, and 24 h to obtain serum and bone marrow. After protein precipitation, concentration of Kaempferol in serum and bone marrow was determined by HPLC. […] Similarly formulated (LbL based assembly) Kaempferol (equivalent to 1 mg/kg of free Kaempferol) was administered orally using gavage. Following administration, the rats were sacrificed at 0.25, 0.5, 1.0, 1.5, 2.0, 2.5, 3.0, 4.0, 6.0, and 24 h to obtain serum and bone marrow. After protein precipitation concentration of Kaempferol in serum and bone marrow was determined by HPLC. The mean serum pharmacokinetics profile (for the three rats at each time point) of kaempferol on administration of formulation was calculated over 24 h. Rapid absorption of Kaempferol is evident, which appeared to peak after 1 h and can be detected for as long as 24 h post administration.

The test system of data set [2] is ovariectomized (OVx) rats. In words: Bone mineral density (BMD) by DEXA after one month of oral administration. Format: in vivo, female Sprague Dawley rats. How it is done: (§1) The study was conducted in accordance with current legislation on animal experiments [Institutional Animal Ethical Committee (IAEC)] at C.D.R.I. Forty female Sprague Dawley rats weighing 200 g were taken for the study (n=10/group). Thirty rats were bilaterally ovariectomized (OVx). The other 10 rats were exposed to a sham surgical procedure. All rats were individually housed at 21° C., in 12-h/12-h light-dark cycles. Normal chow diet and water was provided ad libitum. The rats were left for 4 weeks to develop osteopenia. The animals were divided into 4 groups Sham, Ovaticetomized group (Ovx), Ovx+Kaempferol (Ovaticetomized group treated with Kaempferol) and Ovx+F (Ovaticetomized group treated with formulation of Kaempferol). Animals were treated for one month then sacrificed and BMD was determined.
BMD was determined by DEXA (Dual Energy X-ray Absorptiometry) using a Hologic QDR 4500A x-ray densitometer with high-resolution small animal software. BMD of the excised bones (left femurs, tibia, and lumbar vertebrae) were studied at the end of experiment. Left femurs were placed on their posterior surfaces, and BMD of the sub-regions was assessed. Distal and proximal regions corresponded to the cancellous bone and central to the cortical bone. Results are given in g/cm^2 as represented in FIG. 5.

Data set [3] concerns ovariectomized (OVx) rats. Description: Trabecular bone strength, Bone Strength Tester TK-252C. It counts as in vivo, female Sprague Dawley rats. The note with it: one month treatment. How it is done: as §1
This test predominantly measured trabecular bone strength using a Bone Strength Tester TK-252C (Muromachi Kikai Co. Ltd., Tokyo, Japan). The bone strength for all the groups was measured as reported in this invention.

The next data set concerns OVx rats. Conditions: cited from earlier work.
Setting [4] is: one month oral treatment, excised bone.
Setting [5] is: compared with OVx group treated with vehicle.

As a reminder, the AUC(0-t) is exposure summed from dosing to a finite time, without extrapolation to infinity. A low value points to less exposure. Broadly, the Tmax is the time from dosing to the highest level. The term Cmax denotes the peak of the concentration-time curve. For `O=c1c(O)c(-c2ccc(O)cc2)oc2cc(O)cc(O)c12` [Kaempferol], the Kaempferol saturation solubility result in data set [1] is listed as “much higher”. In addition, in “in vivo”, the AUC(0-t) stood at 1420 ng·h/mL, the Tmax was found to be 30 min, the “time after which bone marrow level went below the detection limit” value is given as 2.5 h and the “time after which serum level went below the detection limit” value is 6 h. Also, the “time of Cmax in bone marrow” value in “in vivo” is recorded as 90 min. Also, the highest level in the data set “in vivo” (Cmax of Kaempferol in bone marrow) (Cmax) was 194 ng/mL. In the data set “in vivo” (Cmax of Kaempferol in serum), this compound had a Cmax of 583 ± 229 ng/mL. Moreover, in data set [2] (setting [4]), the “Bone Mineral Density, Femur diaphysis” value was 0.2658 ± 0.01 g/cm^2; the “Bone Mineral Density, Femur global” value is 0.262 ± 0.01 g/cm^2; the “Bone Mineral Density, Tibia Head” value was found to be 0.2835 ± 0.015 g/cm^2; the “Bone Mineral Density, Vertebrae global” value was found to be 0.1847 ± 0.013 g/cm^2. Further, in data set [2] (one month treatment), the “trabecular BMD over OVx+vehicle group” value is “significantly higher”. The “bone biomechanical strength over OVx+vehicle group” value in data set [3] is given as “significantly higher”. This compound also registered a Bone strength in data set [3] (trabecular bone) of 209.4 ± 21.52 N/mm. Moreover, in the data set on OVx rats, the bone sparing action result is given as “exerts bone sparing action” and the “estrogen agonistic effect at the uterine level” value is on record as “no estrogen agonistic effect”. Besides, in the data set on OVx rats (setting [5]), the “adipocyte differentiation from bone marrow cells” value is recorded as “inhibition” and the osteoprogenitor cells entry is given as “increase”.
